The text below walks through data of ChEMBL document CHEMBL1145498, “A systematic interaction map of validated kinase inhibitors with Ser/Thr kinases” (Proc Natl Acad Sci U S A, 2007).

For orientation: ΔTm means the shift of the melting midpoint relative to a reference.

Each structure is given as a SMILES string.

Experiment [1] concerns the target Calcium/calmodulin-dependent protein kinase type 1D (Homo sapiens) (UniProt Q8IU85).
In experiment [2] the target is Cyclin-dependent kinase 6 (Homo sapiens) (UniProt Q00534).
Experiment [3] concerns the target Cyclin-dependent kinase-like 1 (Homo sapiens) (UniProt Q00532).
The target of experiment [4] is T1, Dual specificity mitogen-activated protein kinase kinase 6 (Homo sapiens) (UniProt P52564).
T1 sequence (whole entry): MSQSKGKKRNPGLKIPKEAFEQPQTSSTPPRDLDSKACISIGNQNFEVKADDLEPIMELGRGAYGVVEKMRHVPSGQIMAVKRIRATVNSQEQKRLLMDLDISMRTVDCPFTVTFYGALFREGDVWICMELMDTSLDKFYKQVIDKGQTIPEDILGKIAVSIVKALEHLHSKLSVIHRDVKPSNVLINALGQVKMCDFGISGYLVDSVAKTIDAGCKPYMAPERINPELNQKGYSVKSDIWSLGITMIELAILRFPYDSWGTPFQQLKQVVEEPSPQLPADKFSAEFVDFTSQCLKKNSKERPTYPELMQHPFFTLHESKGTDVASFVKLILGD

Experiment [5] deals with Mitogen-activated protein kinase 11 (Homo sapiens, UniProt Q15759).
For experiment [6], the target named is Mitogen-activated protein kinase 3 (Homo sapiens, UniProt P27361).
The target of experiment [7] is Serine/threonine-protein kinase 26 (Homo sapiens) (UniProt Q9P289).
For experiment [8], the target named is T2, Serine/threonine-protein kinase Nek2 (Homo sapiens) (UniProt P51955).
T2 sequence (whole entry): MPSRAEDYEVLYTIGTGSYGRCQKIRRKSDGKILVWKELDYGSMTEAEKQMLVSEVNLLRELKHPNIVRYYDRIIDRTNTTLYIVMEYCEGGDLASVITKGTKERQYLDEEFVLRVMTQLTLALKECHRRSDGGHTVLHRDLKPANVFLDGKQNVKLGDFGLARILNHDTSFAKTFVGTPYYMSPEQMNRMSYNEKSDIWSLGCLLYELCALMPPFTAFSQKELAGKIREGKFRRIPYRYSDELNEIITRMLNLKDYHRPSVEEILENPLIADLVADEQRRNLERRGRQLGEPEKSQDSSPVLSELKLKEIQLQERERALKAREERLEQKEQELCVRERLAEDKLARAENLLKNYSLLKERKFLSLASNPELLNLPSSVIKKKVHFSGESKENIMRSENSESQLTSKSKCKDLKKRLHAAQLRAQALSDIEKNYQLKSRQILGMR

Experiment [9] deals with Serine/threonine-protein kinase PAK 4 (Homo sapiens) (UniProt O96013).
The target of experiment [10] is Serine/threonine-protein kinase PAK 5 (Homo sapiens) (UniProt Q9P286).
The target of experiment [11] is Cyclin-dependent kinase 16 (Homo sapiens) (UniProt Q00536).
Experiment [12] deals with Serine/threonine-protein kinase pim-3 (Homo sapiens) (UniProt Q86V86).
Experiment [13] addresses Serine/threonine-protein kinase 16 (Homo sapiens) (UniProt O75716).
For experiment [14], the target named is T3, Serine/threonine-protein kinase 17A (Homo sapiens) (UniProt Q9UEE5).
T3 sequence (whole entry): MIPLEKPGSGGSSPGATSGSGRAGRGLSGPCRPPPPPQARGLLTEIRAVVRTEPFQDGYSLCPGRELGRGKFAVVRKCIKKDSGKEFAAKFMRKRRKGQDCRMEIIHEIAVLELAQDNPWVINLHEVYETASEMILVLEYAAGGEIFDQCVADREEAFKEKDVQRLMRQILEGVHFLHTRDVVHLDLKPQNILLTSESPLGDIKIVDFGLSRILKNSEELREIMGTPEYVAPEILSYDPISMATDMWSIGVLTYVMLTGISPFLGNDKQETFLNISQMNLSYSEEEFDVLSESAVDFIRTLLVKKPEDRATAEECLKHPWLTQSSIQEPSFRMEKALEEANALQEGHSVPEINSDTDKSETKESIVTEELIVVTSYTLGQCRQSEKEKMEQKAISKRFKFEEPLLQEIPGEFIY

Experiment [15] addresses Serine/threonine-protein kinase 38 (Homo sapiens) (UniProt Q15208).
The target in experiment [16] is T4, Serine/threonine-protein kinase 4 (Homo sapiens) (UniProt Q13043).
T4 sequence (whole entry): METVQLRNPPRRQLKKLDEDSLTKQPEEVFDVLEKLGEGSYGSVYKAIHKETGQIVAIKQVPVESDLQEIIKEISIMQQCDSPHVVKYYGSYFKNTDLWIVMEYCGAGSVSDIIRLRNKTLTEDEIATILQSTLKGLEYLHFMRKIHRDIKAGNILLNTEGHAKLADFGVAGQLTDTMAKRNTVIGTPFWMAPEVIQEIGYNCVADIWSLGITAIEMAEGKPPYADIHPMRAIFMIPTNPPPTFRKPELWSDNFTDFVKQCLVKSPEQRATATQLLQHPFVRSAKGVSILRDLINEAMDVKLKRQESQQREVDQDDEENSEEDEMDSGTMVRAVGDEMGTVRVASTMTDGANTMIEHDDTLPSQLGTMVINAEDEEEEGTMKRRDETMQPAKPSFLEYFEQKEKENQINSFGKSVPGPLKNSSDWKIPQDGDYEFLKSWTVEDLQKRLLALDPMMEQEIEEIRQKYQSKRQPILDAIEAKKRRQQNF

Experiment [17] deals with T5, Lymphokine-activated killer T-cell-originated protein kinase (Homo sapiens) (UniProt Q96KB5).
T5 sequence (whole entry): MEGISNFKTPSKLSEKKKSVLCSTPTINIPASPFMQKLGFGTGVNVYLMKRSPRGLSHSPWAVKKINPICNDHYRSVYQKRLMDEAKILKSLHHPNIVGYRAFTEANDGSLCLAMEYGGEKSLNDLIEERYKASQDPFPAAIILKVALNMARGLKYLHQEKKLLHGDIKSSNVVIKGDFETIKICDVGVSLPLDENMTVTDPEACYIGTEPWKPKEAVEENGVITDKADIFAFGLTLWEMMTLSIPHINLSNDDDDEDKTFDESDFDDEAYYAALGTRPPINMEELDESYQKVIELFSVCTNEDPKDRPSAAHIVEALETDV

Chain of Serine/threonine-protein kinase 26 (Homo sapiens) (Q9P289 2-416 limits assumed): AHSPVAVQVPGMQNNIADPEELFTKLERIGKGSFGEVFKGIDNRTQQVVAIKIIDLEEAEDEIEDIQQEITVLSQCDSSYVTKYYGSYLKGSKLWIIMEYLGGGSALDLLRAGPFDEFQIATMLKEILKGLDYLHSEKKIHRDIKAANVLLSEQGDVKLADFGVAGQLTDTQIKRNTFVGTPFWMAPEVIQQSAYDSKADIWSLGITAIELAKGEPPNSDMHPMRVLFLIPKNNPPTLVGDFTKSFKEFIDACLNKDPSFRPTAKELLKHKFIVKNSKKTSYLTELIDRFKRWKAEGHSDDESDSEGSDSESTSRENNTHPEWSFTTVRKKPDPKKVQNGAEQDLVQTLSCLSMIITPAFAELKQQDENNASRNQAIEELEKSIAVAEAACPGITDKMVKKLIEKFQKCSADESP
Chain of Mitogen-activated protein kinase 3 (P27361 whole entry): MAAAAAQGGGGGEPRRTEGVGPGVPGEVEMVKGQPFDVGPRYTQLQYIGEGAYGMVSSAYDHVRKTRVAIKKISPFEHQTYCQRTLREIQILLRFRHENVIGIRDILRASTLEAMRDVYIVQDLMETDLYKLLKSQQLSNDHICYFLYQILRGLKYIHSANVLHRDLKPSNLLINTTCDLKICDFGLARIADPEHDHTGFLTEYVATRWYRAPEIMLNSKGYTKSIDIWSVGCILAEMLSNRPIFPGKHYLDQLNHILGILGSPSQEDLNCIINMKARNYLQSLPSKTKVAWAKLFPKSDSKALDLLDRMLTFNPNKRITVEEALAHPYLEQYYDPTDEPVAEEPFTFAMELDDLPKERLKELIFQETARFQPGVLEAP
Chain of Serine/threonine-protein kinase 16 (Homo sapiens) (O75716 whole entry): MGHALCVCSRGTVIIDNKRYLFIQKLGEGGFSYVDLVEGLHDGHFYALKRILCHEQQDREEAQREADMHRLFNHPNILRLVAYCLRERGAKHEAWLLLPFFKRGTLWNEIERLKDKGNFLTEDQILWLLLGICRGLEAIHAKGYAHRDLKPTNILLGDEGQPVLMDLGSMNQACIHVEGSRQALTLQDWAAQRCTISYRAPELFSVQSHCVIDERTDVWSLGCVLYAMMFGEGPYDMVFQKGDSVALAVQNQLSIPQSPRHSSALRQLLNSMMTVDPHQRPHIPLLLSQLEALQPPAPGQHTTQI
Chain of Mitogen-activated protein kinase 11 (Q15759 whole entry): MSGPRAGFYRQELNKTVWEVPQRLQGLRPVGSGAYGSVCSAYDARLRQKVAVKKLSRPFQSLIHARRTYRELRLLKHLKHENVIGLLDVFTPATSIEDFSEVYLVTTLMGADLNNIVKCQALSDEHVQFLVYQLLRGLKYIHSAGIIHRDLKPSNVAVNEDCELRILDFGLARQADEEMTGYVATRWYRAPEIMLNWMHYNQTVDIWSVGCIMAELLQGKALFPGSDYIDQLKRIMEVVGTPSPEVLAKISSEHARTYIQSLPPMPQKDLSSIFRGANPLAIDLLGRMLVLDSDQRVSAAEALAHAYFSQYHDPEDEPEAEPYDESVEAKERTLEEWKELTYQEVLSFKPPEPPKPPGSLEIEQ
Chain of Cyclin-dependent kinase 6 (Homo sapiens) (Q00534 whole entry): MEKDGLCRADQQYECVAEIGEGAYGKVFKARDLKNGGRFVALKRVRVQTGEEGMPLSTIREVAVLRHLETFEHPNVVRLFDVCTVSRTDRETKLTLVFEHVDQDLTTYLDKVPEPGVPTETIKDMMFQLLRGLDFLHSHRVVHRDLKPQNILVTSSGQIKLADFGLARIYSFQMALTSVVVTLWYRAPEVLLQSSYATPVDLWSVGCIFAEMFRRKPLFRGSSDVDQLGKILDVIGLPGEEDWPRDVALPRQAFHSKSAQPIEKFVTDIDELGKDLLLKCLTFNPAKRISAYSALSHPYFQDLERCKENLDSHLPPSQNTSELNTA
Chain of Cyclin-dependent kinase-like 1 (Homo sapiens) (Q00532 whole entry): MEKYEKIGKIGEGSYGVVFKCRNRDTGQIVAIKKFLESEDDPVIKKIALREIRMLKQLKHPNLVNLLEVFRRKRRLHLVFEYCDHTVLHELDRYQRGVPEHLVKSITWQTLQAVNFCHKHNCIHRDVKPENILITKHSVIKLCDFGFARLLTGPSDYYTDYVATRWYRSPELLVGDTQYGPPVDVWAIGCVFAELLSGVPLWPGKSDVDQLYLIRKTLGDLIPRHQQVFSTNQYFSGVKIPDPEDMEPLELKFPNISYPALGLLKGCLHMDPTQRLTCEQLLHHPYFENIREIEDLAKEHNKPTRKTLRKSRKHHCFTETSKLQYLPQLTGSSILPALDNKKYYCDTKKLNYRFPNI
Chain of Cyclin-dependent kinase 16 (Homo sapiens) (Q00536 whole entry): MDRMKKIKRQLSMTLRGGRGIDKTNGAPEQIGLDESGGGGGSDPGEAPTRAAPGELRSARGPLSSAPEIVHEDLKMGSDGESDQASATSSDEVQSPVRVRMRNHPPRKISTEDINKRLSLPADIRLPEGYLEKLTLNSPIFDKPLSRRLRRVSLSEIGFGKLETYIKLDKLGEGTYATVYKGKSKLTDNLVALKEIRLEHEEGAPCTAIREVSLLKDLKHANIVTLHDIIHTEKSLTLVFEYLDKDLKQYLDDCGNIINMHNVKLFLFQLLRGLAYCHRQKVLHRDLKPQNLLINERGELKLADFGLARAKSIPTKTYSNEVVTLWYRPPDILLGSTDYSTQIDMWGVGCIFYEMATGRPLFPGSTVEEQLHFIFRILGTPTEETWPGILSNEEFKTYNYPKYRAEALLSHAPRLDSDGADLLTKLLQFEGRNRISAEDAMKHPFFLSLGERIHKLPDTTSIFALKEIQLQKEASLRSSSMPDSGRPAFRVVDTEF
Chain of Serine/threonine-protein kinase PAK 4 (Homo sapiens) (O96013 whole entry, looked up): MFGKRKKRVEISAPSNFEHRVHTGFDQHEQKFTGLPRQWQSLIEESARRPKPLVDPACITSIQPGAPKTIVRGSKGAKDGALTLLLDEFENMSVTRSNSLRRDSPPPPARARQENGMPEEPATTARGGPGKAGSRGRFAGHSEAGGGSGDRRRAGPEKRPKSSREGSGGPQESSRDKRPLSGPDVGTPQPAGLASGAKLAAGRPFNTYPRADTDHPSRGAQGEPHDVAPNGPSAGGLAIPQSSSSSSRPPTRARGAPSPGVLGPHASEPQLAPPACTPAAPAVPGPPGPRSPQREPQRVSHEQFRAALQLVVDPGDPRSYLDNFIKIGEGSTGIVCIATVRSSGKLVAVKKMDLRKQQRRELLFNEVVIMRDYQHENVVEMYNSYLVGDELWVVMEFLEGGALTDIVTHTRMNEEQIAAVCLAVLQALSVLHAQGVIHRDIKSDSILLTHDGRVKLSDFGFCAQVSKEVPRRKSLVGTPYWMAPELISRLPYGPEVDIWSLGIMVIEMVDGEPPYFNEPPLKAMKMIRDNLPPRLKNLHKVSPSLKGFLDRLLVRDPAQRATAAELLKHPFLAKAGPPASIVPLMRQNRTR
Chain of Serine/threonine-protein kinase 38 (Homo sapiens) (Q15208 2-465 limits assumed): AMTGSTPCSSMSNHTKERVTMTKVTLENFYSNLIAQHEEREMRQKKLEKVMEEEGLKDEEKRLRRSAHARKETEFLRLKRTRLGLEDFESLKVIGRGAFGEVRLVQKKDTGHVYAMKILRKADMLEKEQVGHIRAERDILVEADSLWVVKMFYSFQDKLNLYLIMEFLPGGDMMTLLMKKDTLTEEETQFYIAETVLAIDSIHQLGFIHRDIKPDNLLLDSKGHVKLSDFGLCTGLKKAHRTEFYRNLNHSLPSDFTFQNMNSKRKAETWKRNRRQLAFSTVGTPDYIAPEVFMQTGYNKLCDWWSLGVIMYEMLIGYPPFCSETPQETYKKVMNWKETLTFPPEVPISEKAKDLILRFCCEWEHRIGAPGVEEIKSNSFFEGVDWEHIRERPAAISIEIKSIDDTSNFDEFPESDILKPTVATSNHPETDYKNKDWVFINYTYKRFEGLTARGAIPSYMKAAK
Chain of Calcium/calmodulin-dependent protein kinase type 1D (Homo sapiens) (Q8IU85 whole entry, looked up): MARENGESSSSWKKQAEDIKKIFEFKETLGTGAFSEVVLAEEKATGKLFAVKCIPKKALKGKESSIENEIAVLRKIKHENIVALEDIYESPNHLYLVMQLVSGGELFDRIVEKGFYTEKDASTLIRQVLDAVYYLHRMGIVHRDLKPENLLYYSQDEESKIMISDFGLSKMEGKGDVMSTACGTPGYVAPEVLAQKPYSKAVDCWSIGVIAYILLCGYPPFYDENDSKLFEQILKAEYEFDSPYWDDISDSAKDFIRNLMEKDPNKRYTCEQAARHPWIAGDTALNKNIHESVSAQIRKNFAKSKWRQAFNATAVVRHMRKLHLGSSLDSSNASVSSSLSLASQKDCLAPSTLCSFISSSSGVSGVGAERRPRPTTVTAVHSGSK

`CN1CCC(Nc2ncc3ncnc(Nc4ccc(F)c(Cl)c4)c3n2)CC1` [FALNIDAMOL]: the ΔTm in experiment [1] is 0.7 °C; in experiment [2], 1 °C; in [3], 3.2 °C; in experiment [4], 0.3 °C; in experiment [5], 0 °C; in experiment [6], 1.7 °C. For the same molecule, the ΔTm in experiment [7] is 6.7 °C; in experiment [8] it was 2.4 °C; in [9], 1.5 °C; in [10], 2.5 °C; in experiment [11], 7.7 °C; in [12], 0.5 °C.

For the molecule `CN[C@@H]1CC2O[C@@](C)([C@@H]1OC)n1c3ccccc3c3c4c(c5c6ccccc6n2c5c31)C(=O)NC4`, the ΔTm was determined as 1 °C in experiment [2]; 6.6 °C in experiment [3]; 11.6 °C in experiment [4]; 0.5 °C in experiment [5]; 1.3 °C in [6]; 9.3 °C in experiment [7]. Moreover, the ΔTm was 2.8 °C in experiment [8]; 12.4 °C in [10]; 17.7 °C in experiment [12]; 9.6 °C in experiment [13]; 17.4 °C in experiment [14]; 5.7 °C in experiment [15]. For the same molecule, the ΔTm was 17.9 °C in [16] and 0.4 °C in [17].

In the case of `COc1ccc(CNC(=O)Nc2ncc([N+](=O)[O-])s2)cc1`, the thermal shift (ΔTm) in experiment [1] stood at 0.3 °C; in experiment [2], 0.2 °C; in experiment [3] it was 0.3 °C; in experiment [4], 0.2 °C; in experiment [5], 1 °C; in [6] it was 0.2 °C. Further, the ΔTm in experiment [7] is -0.3 °C; in experiment [8] it was 0.6 °C; in [9], 0.4 °C; in experiment [10], 0.7 °C; in [11] it was -0.8 °C; in [12] it was 1.5 °C. Also, the ΔTm was 0.3 °C in experiment [13]; 0.5 °C in experiment [14]; 0.1 °C in experiment [15]; 0.4 °C in [16]; 0.3 °C in [17].

On to `Cc1nc(Nc2ncc(C(=O)Nc3c(C)cccc3Cl)s2)cc(N2CCN(CCO)CC2)n1`, for which the ΔTm is 0.9 °C in [1]; -0.1 °C in experiment [2]; 0.6 °C in experiment [3]; 0.5 °C in [4]; 0.4 °C in [5]; 0 °C in experiment [6]. The ΔTm in [7] is -0.4 °C; in experiment [8] it was 0.1 °C; in [9], 1.6 °C; in experiment [10], -0.6 °C; in experiment [11], -0.4 °C; in experiment [12] it was -0.2 °C.

In the case of `COc1cc2ncnc(Nc3cccc(O)c3)c2cc1OC`, the ΔTm in experiment [1] was -0.1 °C; in experiment [2] it was -0.2 °C; in [3], -0.2 °C; in experiment [5], 0.8 °C; in experiment [6] it was -0.2 °C; in experiment [8], 0.2 °C. Moreover, the shift in melting temperature (ΔTm) was 1 °C in experiment [9]; 0.5 °C in experiment [10]; -0.6 °C in [11]; 2 °C in experiment [12]; 0.4 °C in experiment [13]; 3.7 °C in [14]. Further, the ΔTm is 0.4 °C in [15], 1.6 °C in [16] and -0.1 °C in [17].

For `Clc1ccc(Nc2nnc(Cc3ccncc3)c3ccccc23)cc1`, the ΔTm was 0.6 °C in [1]; 0.3 °C in [2]; 0.4 °C in experiment [3]; 0.4 °C in experiment [4]; 0.5 °C in [5]; 0 °C in experiment [6]. Also, the ΔTm was -0.6 °C in [7]; 0.6 °C in experiment [8]; -0.1 °C in experiment [9]; -0.7 °C in [10]; 0.2 °C in experiment [11]; -0.4 °C in experiment [12].

For the molecule `CC(C)(C)c1nc2c3ccc(F)cc3c3c(=O)[nH]ccc3c2[nH]1`, the ΔTm in [1] amounted to 3.6 °C; in experiment [2], 0.4 °C; in [3], 0.3 °C; in [4], 6 °C; in experiment [5] it was 3 °C; in experiment [6], 3.1 °C. Also, the ΔTm in experiment [7] turned out to be 4.1 °C; in [8] it was 0.7 °C; in [9], 1.2 °C; in experiment [10] it was 2.1 °C; in experiment [11], 0 °C; in experiment [12] it was 7.2 °C. Moreover, the ΔTm was 3.5 °C in [13]; 13.7 °C in [14]; 3.7 °C in experiment [15]; 7.8 °C in experiment [16]; -0.6 °C in experiment [17].

As for `N#C/C(=C1/Nc2ccccc2S1)c1ccnc(NCCc2cccnc2)n1`, the shift in melting temperature (ΔTm) was 1.4 °C in experiment [1]; 3.5 °C in experiment [2]; 3.1 °C in experiment [3]; 3.5 °C in experiment [4]; 2.4 °C in experiment [5]; 1.7 °C in [6]. In addition, the shift in melting temperature (ΔTm) turned out to be 2 °C in experiment [7]; 1.9 °C in experiment [8]; 1.3 °C in [9]; 1.8 °C in [10]; 5.8 °C in [11]; 10.9 °C in [12]. Also, the shift in melting temperature (ΔTm) in experiment [13] was found to be 5.5 °C; in experiment [14] it was 4.7 °C; in [15] it was 2.2 °C; in experiment [16], 1.2 °C; in [17] it was 0.8 °C.

For `C[C@@H](N)[C@H]1CC[C@H](C(=O)Nc2ccncc2)CC1`, the ΔTm is 0.6 °C in experiment [1]; 1 °C in experiment [2]; -0.1 °C in experiment [3]; -0.1 °C in experiment [4]; 0 °C in experiment [5]; 0.1 °C in [6]. Moreover, the ΔTm was 0.2 °C in experiment [7]; -0.1 °C in [8]; 1.1 °C in experiment [9]; 0.1 °C in experiment [10]; -0.7 °C in experiment [11]; 1.3 °C in experiment [12]. The thermal shift (ΔTm) worked out at 0.6 °C in experiment [13]; 1.3 °C in experiment [14]; 0.4 °C in [15]; 1.4 °C in experiment [16]; 0.9 °C in experiment [17].
